Data published in US9943542B2, “Compositions and methods for obtaining an improved lung function” (PHARMALUNDENSIS AB, priority 2013, dated 2018).

Experiments:
[1] = target: human sodium/iodide symporter (Homo sapiens, UniProt Q92911); details: versus perchlorate, on a molar concentration basis in serum; cited from earlier work
[2] = tested on: lung function (FEV1) of man with moderately severe COPD; test: Sequential 2-week treatments in one person with moderately severe COPD; type: in vivo, human
Method: After having stable lung function for around a month, they took 2.73 g activated charcoal in water daily for 2 weeks. […] After that, […] instead took 270 mg I2 daily in a vegetable capsule daily for 2 weeks. […] Thereafter, […] instead took 100 mg potassium perchlorate daily for 2 weeks. […] Following this, […] instead took 3 g IAC (prepared according to example 2, and consisting of 2.73 g activated charcoal with 270 mg iodine) daily for 2 weeks. […] Finally, they took a combination of 100 mg potassium perchlorate and 3 g IAC daily for 2 weeks.

[3] = target: T1, sodium/iodide symporter (NIS) (Homo sapiens, UniProt Q92911); details: humans; cited from earlier work
T1 construct: host or cells: thyroid gland of human subjects (in vivo)
T1 sequence (Q92911 1-643): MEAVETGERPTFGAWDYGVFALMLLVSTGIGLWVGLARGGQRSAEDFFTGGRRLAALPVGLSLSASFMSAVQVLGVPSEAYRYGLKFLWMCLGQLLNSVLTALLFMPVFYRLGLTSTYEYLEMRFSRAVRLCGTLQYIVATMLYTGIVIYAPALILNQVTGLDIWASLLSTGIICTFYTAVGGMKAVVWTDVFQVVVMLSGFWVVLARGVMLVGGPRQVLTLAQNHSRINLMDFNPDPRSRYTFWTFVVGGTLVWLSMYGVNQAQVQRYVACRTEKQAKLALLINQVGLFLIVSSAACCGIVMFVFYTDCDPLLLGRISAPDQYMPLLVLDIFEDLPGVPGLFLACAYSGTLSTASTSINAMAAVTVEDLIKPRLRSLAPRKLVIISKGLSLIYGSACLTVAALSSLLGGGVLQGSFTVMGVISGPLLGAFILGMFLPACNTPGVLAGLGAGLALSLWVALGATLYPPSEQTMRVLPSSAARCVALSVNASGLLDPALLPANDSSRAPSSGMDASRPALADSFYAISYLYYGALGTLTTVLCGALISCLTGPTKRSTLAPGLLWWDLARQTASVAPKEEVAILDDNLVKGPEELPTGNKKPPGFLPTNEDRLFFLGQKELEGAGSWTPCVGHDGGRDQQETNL

[4] = in vivo; cited from earlier work
patients with COPD = details: administered orally; cited from earlier work
[5] = tested on: patients with stable chronic bronchitis; details: cited from earlier work

For `N#C[S-].[Na+]` [thiocyanate, Thiocyanate], the “relative potency for inhibiting iodide uptake by the sodium/iodide symporter” value [1] is listed as “lower than that of perchlorate”.
For `[O-][Cl+3]([O-])([O-])O` [potassium perchlorate], the “effect on lung function (FEV1), in words” value ([2]; daily for 2 weeks, one patient) is listed as “did not improve the lung function at all”, the “level that can temporarily inhibit the thyroid gland's ability to adsorb iodine from the bloodstream” value [3] is listed as “above 0.007 mg/(kg·d)” and the “metabolism and storage in the body” value [4] is listed as “neither metabolised nor stored in the body”.
For `II` [I2, iodine], the “effect on lung function (FEV1), in words” value ([2]; in vivo) is given as “did not improve their lung function” and the “effect on lung function” value (patients with COPD) is given as “does not improve the lung function”.
In the case of Iodinated glycerol, the “improvement in pulmonary function” value ([5]; 16 weeks treatment) is given as “lack significant improvement” and the side effects ([5]; human, in vivo) is given as “side effects such as iodine poisoning”.
